Assay results reported in paper PMC12030253, “New Temporin A Analogues Modified in Positions 1 and 10—Synthesis and Biological Studies” (Pharmaceutics, 2025).
Converted amounts (≈) assume the structure as drawn. “And” between values parts separate entries of the source, which are not always exact repeats. Equal values may be shown once. Read-outs that look alike come from different tables or passages of the source. Square brackets hold non-standard residues; d marks the D form. Ends that are not written are not given here. Peptide text beside a SMILES is read from it. Phe(4-F) = N[C@@H](Cc1ccc(F)cc1)C(=O)O

Experiments:
in vitro = assay type: cell-based, Mouse; details: mouse
Description: (§1) Mouse embryonic fibroblasts (BALB 3T3 clone A31), human breast epithelial cells (MCF-12F), luminal A breast cancer (MCF-7), and basal B-type breast cancer (MDA-MB-231) were used in in vitro experiments. Cell cultures were purchased from the American Type Cultures Collection (ATCC, Manassas, VA, USA). Cells were cultured in a growth medium (DMEM-4.5 g/L glucose), 10% FBS, and antibiotics (Sigma-Aldrich, Schnelldorf, Germany). Cells were incubated at 5% CO2, 37 °C, and 95% humidity. Plastic flasks (75 cm^2) were used for the cell culture (Biologix, Lenexa, KS, USA).
(§2) The safety testing was performed according to the OECD Guidelines for the Testing of Chemicals, Section 4, Test No. 432. Mouse embryonic fibroblasts (BALB 3T3, clone A31) were used to perform the in vitro cytotoxicity and phototoxicity tests. Cells were plated at 1 × 10^4 cells per well in 96-well cell culture plates. The cells were incubated in a thermostat for 24 h before the test peptide analogues were added. […] Working concentrations (4–1000 µM) of peptides were obtained by diluting the stock solution with a culture medium. The phototoxicity test was performed using 96-well microplates. The microplates were irradiated with a dose of 2.4 J/cm^2 using a solar light simulator Helios-iO (SERIC Ltd., Tokyo, Japan). After treatment with a neutral red (NR) medium (NR dissolved in culture medium, 34 µg/mL), washing, and application of the NR Desorb solution (freshly prepared 49 parts water + 50 parts ethanol + 1 part acetic acid), the absorption was measured on a microplate reader at a wavelength of 540 nm. Cytotoxicity was expressed as CC50 values.

BALB 3T3 cells = assay: in vitro; assay type: cell-based, Mouse
Description: as §1, §2

MCF-12F cells = assay type: cell-based, human; details: for IC50: 72 h
Description: as §1
(§3) The antiproliferative activity of the peptide analogues was determined by an MTT assay. Normal epithelial cells (MCF-12F) and tumor cell lines (MCF-7 and MDA-MB-231) were used in the in vitro experiments. Cells were plated at 1 × 10^3 cells/100 µL/well in 96-well microplates. After 24 h of incubation in a thermostat under standard conditions, the cells were treated with test compounds for 72 h. The optical density of the formazan was measured at λ = 540 nm using a microplate reader. Antiproliferative activities were expressed as IC50 values. The statistical analysis of the results was performed using one-way ANOVA, followed by Bonferroni’s post hoc test.

MCF-7 cells = assay type: cell-based, human; details: 72 h
Description: as §1
as §3, with “After 24 h of incubation in a thermostat under standard conditions, the cells were treated with test compounds for 72 h.” left out

MDA-MB-231 cells = assay type: cell-based, human; details: 72 h
Description: as §1
as §3, with “After 24 h of incubation in a thermostat under standard conditions, the cells were treated with test compounds for 72 h.” left out

[1] = tested on: Arthrobacter oxydans NBIMCC 9333; assay type: cell-based; details: 24 h
Description: (§4) In order to evaluate the antimicrobial activity, the parent peptide Temporin A and newly synthesized analogues were tested against model strains Escherichia coli NBIMCC 8785, Pseudomonas aeruginosa NBIMCC 3700, Bacillus subtilis NBIMCC 3562, Arthrobacter oxydans NBIMCC 9333, and Candida albicans NBIMCC 74. The strains were purchased from the National Bank for Industrial Microorganisms and Cell Cultures (NBIMCC, Sofia, Bulgaria). They were cultured as follows: • E. coli 8785 in Luria–Bertani (LB, HiMedia, Mumbai, India) agar medium; • B. subtilis 3562 in nutrient broth (NB, HiMedia, Mumbai, India) agar medium; • P. aeruginosa 3700 and A. oxydans 9333 in Meat Peptone agar (MPA) medium; • C. albicans 74 in Yeast Mold (YM) agar medium.
(§5) The cultivation was performed in an incubator shaker ES-20/60 (Biosan, Riga, Latvia), set for B. subtilis 3562, A. oxydans 9333, and C. albicans 74 at 30 °C, and for E. coli 8785 and P. aeruginosa 3700 at 37 °C, for 24 h with 120 rpm. The microbial cultures were then brought to a 0.5 McFarland turbidity using a Grant-bio DEN-1B densitometer (Grant Instruments, Nether Alderley, United Kingdom).
(§6) The broth dilution method was employed to estimate the MIC of the peptides. In total, 10 mg/mL peptide stock solutions in 10% EtOH/H2O were prepared. Microbial culture in the corresponding media and peptide solutions in a concentration range from 0 to 320 µg/mL (concentration levels: 0, 10, 20, 40, 80, 160, and 320 µg/mL) were placed in 96-well U-shaped-bottom polystyrene plates (Deltalab S.L., Barcelona, Spain). In addition, 10% EtOH/H2O control, diluted in the nutrient medium, was added in separate wells. Furthermore, the microplates were incubated under aerobic conditions at the desired temperature for 24 h. […] The absorbance was measured at 630 nm (microplate reader PKL PPC 142, Italy). In total, 10 μL solution with concentrations greater than or equal to the MIC value was placed on the corresponding solid nutrient medium in order to evaluate a potential minimum bactericidal concentration (MBC) and minimal fungicidal concentration (MFC). Furthermore, the Petri dishes were incubated for 24 h at either 30 or 37 °C. Every experiment was carried out three times.

[2] = tested on: Bacillus subtilis NBIMCC 3562; assay type: cell-based
Description: as §4, §5, §6

[3] = tested on: Pseudomonas aeruginosa NBIMCC 3700; assay type: cell-based
Description: as §4, §5, §6

[4] = tested on: Escherichia coli NBIMCC 8785; assay: Broth dilution MIC, E. coli; assay type: cell-based; design: key: NI—no inhibition observed; details: 0-320 µg/mL, 24 h
Description: as §4, §5
(§7) The broth dilution method was employed to estimate the MIC of the peptides. In total, 10 mg/mL peptide stock solutions in 10% EtOH/H2O were prepared. […] The absorbance was measured at 630 nm (microplate reader PKL PPC 142, Italy). […]

[5] = tested on: Candida albicans NBIMCC 74; assay: Broth dilution MIC, C. albicans; assay type: cell-based; design: key: NI—no inhibition observed; details: 0-320 µg/mL, 24 h
Description: as §4, §5, §7

[6] = tested on: Bacillus subtilis NBIMCC 3562; assay type: cell-based; details: 30 µg/disk, positive control on the plate of the peptide
Description: as §4, §5
(§8) The disk diffusion method was employed as an additional technique in order to determine the percentage of inhibition of the synthesized peptides compared to a chosen antibiotic, used as a positive control. The antibiotics used were gentamicin (10 µg/disk), chloramphenicol (30 µg/disk), and itraconazole (10 µg/disk). In total, 100 μL from each microbial culture was spread on LB/NB/MPA/YM agar plates. The plates were then incubated at the appropriate temperature for a period of 30 min intended for the penetration of the culture into the agar. […] The antimicrobial activity was assessed by measuring the diameter of the inhibition zones in mm. […] In addition, the percentage of inhibition was calculated as the correlation between the inhibition zone of the peptide (measured in mm) over the inhibition zone of the antibiotic (measured in mm) multiplied by 100.

[7] = tested on: Bacillus subtilis NBIMCC 3562; design: method as in PMID 38931840; details: 30 µg/disk, positive control with DTA; cited from earlier work
[8] = tested on: Escherichia coli NBIMCC 8785; assay type: cell-based; details: 10 µg/disk, positive control on the plate of the peptide
Description: as §4, §5, §8

[9] = tested on: Pseudomonas aeruginosa NBIMCC 3700; assay type: cell-based; details: 10 µg/disk, positive control on the plate of the peptide
Description: as §4, §5, §8

[10] = tested on: Arthrobacter oxydans NBIMCC 9333; design: method as in PMID 38931840; details: 10 µg/disk, positive control with DTA; cited from earlier work
[11] = tested on: Escherichia coli NBIMCC 8785; design: method as in PMID 38931840; details: 10 µg/disk, positive control with DTA; cited from earlier work
[12] = tested on: Pseudomonas aeruginosa NBIMCC 3700; design: method as in PMID 38931840; details: 10 µg/disk, positive control with DTA; cited from earlier work
[13] = broth dilution, 0-320 µg/mL, 24 h

Row | Molecule | CC50 (in vitro; Mean CC50 ± SD +Irr) [µM] | CC50 (in vitro; Mean CC50 ± SD −Irr) [µM] | PIF (Photo-Irritation Factor) (BALB 3T3 cells) | IC50 (MCF-12F cells) [µM] | IC50 (MCF-7 cells) [µM] | IC50 (MDA-MB-231 cells) [µM] | MIC A. oxydans 9333 [1] [µg/mL] | MIC B. subtilis 3562 ([2]; NBIMCC 3562, 24 h) [µg/mL] | MIC P. aeruginosa 3700 ([3]; NBIMCC 3700, 24 h) [µg/mL] | MIC E. coli 8785 [4] | MIC C. albicans 74 [5] | further results
1 | YLPLIGRVLSGIL-NH2 [DTTyr1, Y-LPLIGRVLSGILNH2] | 671 ± 12.2 | 669 ± 13.4 | 1.0 | 318 ± 9.79 | 216 ± 10.3 | 334 ± 3.72 | 320 | 160 | 320 | NI ** | NI ** | –
2 | O=C(N[C@H](CO)[C@H](O)c1ccc([N+](=O)[O-])cc1)C(Cl)Cl [Chloramphenicol, chloramphenicol] | – | – | – | – | – | – | – | – | – | – | – | Inhibition zone B. subtilis 3562, antibiotic control [6]: 24 mm and 27 mm and 28 mm; Inhibition zone B. subtilis 3562, antibiotic control [7]: 26 mm
3 | CNC(C)C1CCC(N)C(OC2C(N)CC(N)C(OC3OCC(C)(O)C(NC)C3O)C2O)O1 (centres unmarked) [Gentamicin, gentamicin] | – | – | – | – | – | – | – | – | – | – | – | Inhibition zone E. coli 8785, antibiotic control [8]: 17.5 mm and 16.5 mm and 17 mm; Inhibition zone P. aeruginosa 3700, antibiotic control [9]: 17 mm and 18 mm and 16 mm; Inhibition zone A. oxydans 9333, antibiotic control [10]: 18 mm; Inhibition zone E. coli 8785, antibiotic control [11]: 18 mm; Inhibition zone P. aeruginosa 3700, antibiotic control [12]: 17 mm
4 | CC[C@H](C)[C@H](NC(=O)CNC(=O)[C@H](CO)NC(=O)[C@H](CC(C)C)NC(=O)[C@@H](NC(=O)[C@H](CCCNC(=N)N)NC(=O)CNC(=O)[C@@H](NC(=O)[C@H](CC(C)C)NC(=O)[C@@H]1CCCN1C(=O)[C@H](CC(C)C)NC(=O)[C@@H](N)Cc1ccc(F)cc1)[C@@H](C)CC)C(C)C)C(=O)N[C@@H](CC(C)C)C(N)=O [DT4F, Phe(4F)-LPLIGRVLSGILNH2] (H-[Phe(4-F)]LPLIGRVLSGIL-NH2) | 40 ± 0.78 | 55.4 ± 4.64 | 1.4 | 41.8 ± 1.64 | 20.3 ± 0.6 | 32 ± 1.43 | 160 (≈ 113 µM) | 80 (≈ 56.5 µM) | 80 (≈ 56.5 µM) | – | – | –
5 | FLPLIGRVLYGIL-NH2 [DTTyr10, FLPLIGRVL-Y-GILNH2] | > 1000 | > 1000 | – | 251 ± 11.8 | 64.5 ± 3.93 | 328.5 ± 2.62 | – | – | – | NI ** | NI ** | Antiproliferative activity in MCF-12F at a single concentration (MCF-12F cells; at 64.51 µM, non-tumorigenic cells): no antiproliferative activity was observed; MIC A. oxydans 9333 ([1]; broth dilution, 0-320 µg/mL): 320 µg/mL; MIC B. subtilis 3562 [2, 13]: 320 µg/mL; MIC P. aeruginosa 3700 [3, 13]: 320 µg/mL
6 | FLPLIGRVLTGIL-NH2 [DTThr, FLPLIGRVL-T-GILNH2] | 188 ± 3.55 | 183 ± 2.91 | 1.0 | 165 ± 2.21 | 98.6 ± 1.19 | 136 ± 3.61 | 320 | 160 | 320 | – | – | –
